Measured values reported in BindingDB's records for doi:10.7270/Q2CN72C0 (Burnham Center For Chemical Genomics, 2010).

molecular target: T1, Nucleotide-binding oligomerization domain-containing protein 1 (Homo sapiens, UniProt Q9Y239); assay: inhibition of NOD1-driven NF-kB reporter – cell-based, luminescence, uHTS, primary screen (AID 1578)
T1 sequence (Q9Y239 whole entry): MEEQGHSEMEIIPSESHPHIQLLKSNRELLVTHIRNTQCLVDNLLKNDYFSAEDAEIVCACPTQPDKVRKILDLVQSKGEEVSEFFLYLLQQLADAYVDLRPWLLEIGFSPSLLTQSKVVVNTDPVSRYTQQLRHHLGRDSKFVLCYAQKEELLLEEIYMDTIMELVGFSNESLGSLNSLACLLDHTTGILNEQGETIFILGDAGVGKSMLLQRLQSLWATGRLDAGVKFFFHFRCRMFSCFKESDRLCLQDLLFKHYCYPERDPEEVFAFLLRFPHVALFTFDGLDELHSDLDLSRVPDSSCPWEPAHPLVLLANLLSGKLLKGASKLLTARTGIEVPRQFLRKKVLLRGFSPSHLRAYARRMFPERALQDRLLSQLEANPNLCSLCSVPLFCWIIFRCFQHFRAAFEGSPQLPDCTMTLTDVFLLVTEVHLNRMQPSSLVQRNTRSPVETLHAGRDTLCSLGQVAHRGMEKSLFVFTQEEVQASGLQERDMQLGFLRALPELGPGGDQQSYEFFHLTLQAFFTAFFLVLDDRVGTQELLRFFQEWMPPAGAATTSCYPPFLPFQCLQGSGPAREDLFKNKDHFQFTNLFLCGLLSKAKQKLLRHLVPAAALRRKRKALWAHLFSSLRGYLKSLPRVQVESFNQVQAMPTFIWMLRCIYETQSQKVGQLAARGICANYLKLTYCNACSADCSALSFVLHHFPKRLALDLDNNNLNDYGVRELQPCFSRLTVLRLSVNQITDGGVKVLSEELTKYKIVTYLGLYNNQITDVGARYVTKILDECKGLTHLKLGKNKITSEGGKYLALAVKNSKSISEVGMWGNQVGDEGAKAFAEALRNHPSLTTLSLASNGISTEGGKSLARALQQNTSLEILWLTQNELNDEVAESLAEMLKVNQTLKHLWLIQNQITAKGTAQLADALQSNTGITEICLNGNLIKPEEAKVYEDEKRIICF

`Cc1cc(CN=Nc2ncnc(N)c2[N+](=O)[O-])c(C)n1-c1ccccc1` and `Cc1cc(CN=Nc2nc(N)ncc2[N+](=O)[O-])c(C)n1-c1ccccc1F` [MLS000392273] are within 1.5-fold of each other in EC50: 4.14 µM for the first, 4.64 µM for the second.

`Cc1cc(SCC(=O)OCC(=O)C(C#N)c2nc3ccccc3[nH]2)c(C)cc1Br` (stereo not given) and `Cc1ccc(C)c(SCC(=O)OCC(=O)C(C#N)c2nc3ccccc3[nH]2)c1` (stereo not given) [MLS000392255] cannot be ordered by EC50: > 20 µM for the first, > 20 µM for the second.

First: O=C1C(=O)N(c2nccs2)C(c2ccccc2)C1C(=O)c1ccc2c(c1)OCCO2 (stereo not given)
Second: CCOC(=O)c1sc(N2C(=O)C(=O)C(C(=O)c3ccco3)C2c2cccc([N+](=O)[O-])c2)nc1C (stereo not given) [MLS001082998]
The EC50 of the first is lower: 11.5 µM for the first, > 20 µM for the second. The first is the more potent here.

`Oc1cccc(CN=Nc2ccc(Cl)nn2)c1O` and `Oc1c(Br)cc(Br)cc1CN=Nc1ccc(Cl)nn1` [MLS001171109] cannot be ordered by EC50: > 20 µM for the first, > 20 µM for the second.

First: CCCOC1=CC(=O)C(C=NNC(=S)Nc2ccccc2[N+](=O)[O-])C=C1 (stereo not given) [1-(2-nitrophenyl)-3-[[(E)-(6-oxo-4-propoxy-1-cyclohexa-2,4-dienylidene)methyl]amino]thiourea]
Second: C=CCN1C(=O)C(=NNC(=S)Nc2cccc(C)c2)c2ccccc21 [1-(3-methylphenyl)-3-[(Z)-(2-oxidanylidene-1-prop-2-enyl-indol-3-ylidene)amino]thiourea]
The EC50 of the first is 11-fold higher: 11.9 µM for the first, 1.09 µM for the second.

`CCCCCCC1=Cc2c/c(=C3/NN=C(c4ccccc4OC)O3)c(=O)oc2=CC1=O` [6-Hexyl-7-hydroxy-3-[5-(2-methoxy-phenyl)-[1,3,4]oxadiazol-2-yl]-chromen-2-one] and `CCCCCCC1=Cc2c/c(=C3/NN/C(=C4/C=CC=CC4=O)O3)c(=O)oc2=CC1=O` [(3E)-6-hexyl-3-[(5E)-5-(6-oxocyclohexa-2,4-dien-1-ylidene)-1,3,4-oxadiazolidin-2-ylidene]chromene-2,7-dione] are within 1.5-fold of each other in EC50: 6.54 µM for the first, 4.51 µM for the second.

Going from `Cc1ccc(O)c(/N=C/C2=CC(Cc3ccccc3)C=C([N+](=O)[O-])C2=O)c1` (stereo not given) [(6E)-6-[[(5-methyl-2-oxidanyl-phenyl)amino]methylidene]-2-nitro-4-(phenylmethyl)cyclohexa-2,4-dien-1-one] to `CCOc1ccc(-c2csc(/C(C#N)=C/C3C=CC(=O)C([N+](=O)[O-])=C3)n2)cc1` (stereo not given) [SMR000237723], the EC50 falls from 6.21 µM to 1.52 µM (4.1-fold).

Compared with `COc1ccc(NS(=O)(=O)c2ccc(N=NC(C)c3ccncc3)c([N+](=O)[O-])c2)cc1` (stereo not given) [MLS000393523], `C=CCN1C(=O)C(=NNC(=S)Nc2cccc(OC)c2)c2ccccc21` [SMR000132469] is higher in EC50: 4.33 µM for the first, > 20 µM for the second. The first is the more potent here.

`O=C1C([N+](=O)[O-])=CC(Cl)=CC1CN=Nc1ccccn1` (stereo not given) [MLS000539830] and `Cc1cc(N=NCc2ccccc2[N+](=O)[O-])nc(-n2nc(C)cc2C)n1` [SMR000426946] are within 1.5-fold of each other in EC50: 9.12 µM for the first, 6.21 µM for the second.

First: CN1C(=O)C(=NNC(=S)Nc2ccccc2F)c2cc(S(=O)(=O)N3CCOCC3)ccc21 [SMR000314843]
Second: COc1cc(CN=Nc2nc3c(c(=O)n(C)c(=O)n3C)n2Cc2ccccc2)ccc1OC(=O)c1ccco1 [[4-[[(7-benzyl-1,3-dimethyl-2,6-dioxopurin-8-yl)hydrazinylidene]methyl]-2-methoxyphenyl] furan-2-carboxylate]
The EC50 of the first is higher: > 20 µM for the first, 5.22 µM for the second.
